Assay results: patent US9139615B2, “High-affinity, dimeric inhibitors of PSD-95 as efficient neuroprotectants against ischemic brain damage and for treatment of pain” (University of Copenhagen, priority 2011, dated 2015)
Where no end group is shown, it is not given here.

Tests used:
[1] = Physiological status of pMCAO mice (blood values, body weight, temperature, survival); type: in vivo; details: mouse, in vivo
Description: The physiological status of the mice was carefully monitored prior to and during pMCAO surgery in order to exclude the observed effects of treatment with dimeric PSD-95 inhibitors being due to secondary conditions (e.g. disease-related) resulting from the experimental procedure.
9.10 Body weight monitoring: The body weight of each mouse was registered during pre-training, before surgery, and at 24 and 48 hours after surgery and no differences were seen between the treatment groups (FIG. 13).
9.11 Temperature monitoring: The rectal temperature of the mouse was continuously measured using a thermocoupled probe connected to a Model Bat 12 unit (Physitemp). The temperature was measured prior to and 30 min after pMCAO in addition to 30 min and 2.5 hours after i.v. injection, i.e. 1 and 3 hours after pMCAO.
9.12 Blood gas analysis: One samples of venous blood was taken for blood gas analysis of PO2/PCO2 electrolytes, glucose, lactate, and hematocrit, 30 min after compound administration (1 hour after pMCAO). A capillary heparin coated tube was inserted along the inner corner of eye and turned until it penetrated the conjunctiva. A sample of blood (150 μl) was collected and stored on ice until gas analysis using the GEM Premier 300 blood gas instrument (Instrumentation Laboratory) Quality controls (QC ContrlIL9) were purchased from IL Sensor Systems. Also, no differences were detected in blood gas parameters (PO2/PCO2, pH, electrolytes, glu/lac), which were similar between the groups and within normal range, when compared to unmanipulated control mice (Table 4).

[2] = Human blood plasma stability assay; type: in vitro ADME; details: human, plasma; 0.25 mM, 37° C., in vitro; read-out: half-life (T1/2) in human blood plasma
Description: Ligands (dimeric PSD-95 inhibitors) for the PDZ domain of PSD-95 were dissolved in human blood plasma (270 μL; 3H Biomedical, Sweden, cat no 1300-1-P50) to a concentration of 0.25 mM (30 μL, of 2.5 mM) and incubated at 37° C. Aliquots (30 μL) were removed at various time intervals (e.g. 0, 5, 10, 20, 40, 80, 160, 320, 960, 1280, 2550, 4560 and 7240 min) and quenched with 60 μL, trichloroacetic acid (aq., 5%). The aliquots were vortexed, and incubated 15 min, at 4° C. prior to centrifugation at 18,000 g for 2 min. The supernatants were analyzed by analytical RP-HPLC (UV218) to quantify compound relative to time zero, and also evaluated qualitatively by ESI-LC/MS in order to identify the compound (m/z) in the sample. Procaine (positive control) and procainamide (negative control) were investigated at 50 μM to validate the procedure. Ligand recoveries following the precipitation procedure were between 85-95%.

PDZ1-2 of PSD-95 = target: T1, PDZ1-2 of PSD-95 (Homo sapiens, UniProt P78352); test: Fluorescence polarization (FP) assay, affinity for PDZ1-2 of PSD-95; type: binding; details: Ki ± SEM, affinity towards PDZ1-2 of PSD-95, heterologous competition, probe AB143 0.5 nM, PDZ1-2 […], TBS pH 7.4; IC50 converted to Ki
T1 construct: made in house; host or cells: E. coli BL21-DE3 pLysS
Source text: VI.i. Fluorescence Polarization (FP) Assay: as described below, Example 1 provides a convenient and reliable way to monitor and evaluate the inhibitor properties of a PSD-95 inhibitor of the invention. The FP assay allows a wide range of peptide analogues to be tested and compared with respect to their interaction with PDZ domains, and their specificity with respect to the tandem PDZ1-2 of PSD-95. PDZ1-2 is expressed using standard recombinant DNA technology known to those skilled in the art.
More specifically, the assay is based on a heterologous competition binding assay, where the affinity measured as IC50 of a given (non-fluorescent) peptide analogue for a PDZ domain is measured in the presence of a fixed concentration of a fluorescent labeled dimeric ligand (AB143; FIG. 4). Determined IC50 values are converted to Ki values (Nikolovska-Coleska et al, Anal. Biochem. 2004, 332, p. 261-273). The 5-FAM fluorophore may be attached to the dimeric ligand by coupling with HATU or HBTU.
The cDNA coding for PSD-95 PDZ1-2 tandem (corresponding to residues 61-249 in the human full-length PSD95α without exon 4b) were amplified by inverted PCR and cloned in a modified His-tagged pRSET vector (Invitrogen, Carlsbad, Calif., USA). The encoded PDZ1-2 peptide further comprised the sequence, […] (SEQ ID NO: 14), which was used as a tag for purification (His-tag), and the DNA coding sequences and encoded proteins are designated as follows: HIS-PDZ1-2 DNA [SEQ ID NO: 1] encoding HIS-PDZ1-2 protein [SEQ ID NO: 2]. Competent E. coli bacteria (BL21-DE3, pLysS) were transformed with PDZ1-2 expressing construct and grown overnight on agar plates containing ampicillin (100 μg/mL) and chloramphenicol (35 μg/mL) at 37° C. Colonies were picked and used to inoculate bacterial cultures (LB medium with 50 μg/mL ampicillin). These were shaken while being incubated at 37° C. until A600 of the culture reached 0.45, at which point 1 mM isopropyl β-D-1-thiogalactopyranoside was added. Induced cultures were incubated over night at 30° C. (PDZ1-2). Cells were harvested by spinning at 10,000 g for 10 min at 4° C. and re-suspended in lysis buffer (50 mM Tris/HCL pH 7.5, 1 mM PMSF, 25 μg/ml DNAse, 40 mM Mg2SO4). The cells were destroyed using a cell disruptor apparatus at 26 KPsi. The cell lysate was spun down at 35,000 g for 1 hour and the supernatant filtered with a 0.45 μm and a 0.22 μm filter. Purification of expressed PDZ1-2 peptide was performed with first a nickel (II)-charged column (HisTrap™ HP, GE Healthcare, UK) equilibrated with Tris-buffer (Tris/HCl buffer 50 mM, pH 7.5) followed by gel-filtration. For gel-filtration the PDZ1-2 sample was loaded on a Superdex™ 75 HR 10/30 column (GE Healthcare, UK) equilibrated with Tris buffer (20 mM Tris/HCL, pH 7.5) with a constant flow rate at 0.5 mL/min. The relevant fractions were analyzed on a SDS-PAGE gel stained by a standard silver staining protocol. The final purification was analyzed by electrospray ionization liquid chromatography-mass spectrometry (ESI-LC/MS) to get the exact molecular weight and thereby verify the identity of the PDZ1-2 domain. Molar extinction coefficients were found by amino acids analysis (Alphalyse, Odense, Denmark) and thereafter used for measuring protein concentrations. […]
An in vitro affinity measurement assay was developed based on the fluorescence polarization principle in order to provide affinity constants (Ki values) between synthesized ligands (e.g. dimeric inhibitors) and PDZ1-2 of PSD-95. […]

T1 sequence (P78352 with tags, fused parts or gaps): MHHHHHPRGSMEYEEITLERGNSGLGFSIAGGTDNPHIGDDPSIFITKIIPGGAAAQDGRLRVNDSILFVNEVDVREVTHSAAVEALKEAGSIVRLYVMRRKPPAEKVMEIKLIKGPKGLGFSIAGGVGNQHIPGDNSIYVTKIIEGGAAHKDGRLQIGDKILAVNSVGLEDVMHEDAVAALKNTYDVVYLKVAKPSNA

YGRKKRRQRRRKLSSIESDV [Tat-NR2B9c, reference compound]
Hct [1]: 40.8 ± 0.6% | [Ca2+] [1]: 1.32 ± 0.01 mmol/L | [K+] [1]: 5.1 ± 0.13 mmol/L | [Lactate] [1]: 0.87 ± 0.07 mmol/L | [Na+] [1]: 147 ± 0.3 mmol/L | pCO2 [1]: 106 ± 2.4 mmHg | pO2 [1]: 55.2 ± 2.6 mmHg | half-life at 0.25 mM [2]: 18.3 ± 5 h | Ki (PDZ1-2 of PSD-95): 4.6 ± 0.3 µM
